In BindingDB's records for PubMed 3139864 (Vanderbilt University, 1988):

What follows are compounds tested against T1, 5-hydroxytryptamine receptor 2C (Rattus norvegicus, UniProt P08909).
T1 sequence (P08909 whole entry): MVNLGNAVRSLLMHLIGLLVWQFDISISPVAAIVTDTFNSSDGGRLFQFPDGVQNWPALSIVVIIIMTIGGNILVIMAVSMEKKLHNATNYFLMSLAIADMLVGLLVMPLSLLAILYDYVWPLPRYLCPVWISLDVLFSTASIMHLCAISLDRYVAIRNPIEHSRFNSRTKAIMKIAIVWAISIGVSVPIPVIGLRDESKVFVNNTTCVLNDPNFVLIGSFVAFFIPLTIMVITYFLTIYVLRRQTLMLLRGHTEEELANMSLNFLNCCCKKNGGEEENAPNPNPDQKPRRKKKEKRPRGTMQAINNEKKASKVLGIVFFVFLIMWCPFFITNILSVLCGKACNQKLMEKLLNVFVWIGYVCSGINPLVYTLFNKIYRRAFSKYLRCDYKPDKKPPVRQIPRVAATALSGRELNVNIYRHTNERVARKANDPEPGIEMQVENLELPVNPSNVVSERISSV

Q: Which Ki does the source give for O=C(c1ccc(F)cc1)C1CCN(CCn2c(=O)[nH]c3ccccc3c2=O)CC1 [3-(2-{4-[(4-fluorophenyl)carbonyl]piperidin-1-yl}ethyl)-1,2,3,4-tetrahydroquinazoline-2,4-dione] here?
A: 30 nM

Q: How did the Ki turn out when CN(C)CCCN1c2ccccc2CCc2ccccc21 was run?
A: 100 nM

Q: How did the Ki turn out when CN(C)CCC(c1ccc(Cl)cc1)c1ccccn1 (centres undefined) [clorfeniramina] was run?
A: 3120 nM

Q: For CC1(C)CC(=O)N(CCCCN2CCN(c3ncccn3)CC2)C(=O)C1 [4,4-Dimethyl-1-[4-(4-pyrimidin-2-yl-piperazin-1-yl)-butyl]-piperidine-2,6-dione], which Ki is on record?
A: > 10000 nM
